These results are taken from publication PMC6081394, “Structural basis of cell wall anchoring by SLH domains in Paenibacillus alvei” (Nature Communications, 2018).

For assay [1], the target named is T1, S-layer protein SpaA (SpaASLH) (Paenibacillus alvei, UniProt C1JZ07).
T1 construct: SLH domain trimer, amino acids 21–193, Ser-Gly-Ser linker and C-terminal His6-tag
T1 sequence (C1JZ07 21-193): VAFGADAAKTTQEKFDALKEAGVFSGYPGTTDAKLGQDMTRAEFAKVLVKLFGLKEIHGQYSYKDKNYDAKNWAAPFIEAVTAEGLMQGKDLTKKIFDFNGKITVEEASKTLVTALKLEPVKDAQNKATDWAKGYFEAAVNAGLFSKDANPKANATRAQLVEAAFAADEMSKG
Put plainly: co-crystal structure (no binding detected by ITC). In general terms: In ITC the heat of successive injections is recorded.

In assay [2] the target is T2, S-layer protein SpaA (SpaASLH/G109A) (Paenibacillus alvei, UniProt C1JZ07, G109A).
T2 construct: SLH domain trimer, amino acids 21–193, Ser-Gly-Ser linker and C-terminal His6-tag
In words: ITC and co-crystal structure. The assay is classed as binding.

The target in assay [3] is T1, S-layer protein SpaA (SpaASLH). Put plainly: ITC and co-crystal structures. In kind it is binding.
Assay [4] has as its target T3, S-layer protein SpaA (SpaASLH/G46A/G109A) (Paenibacillus alvei, UniProt C1JZ07, G46A/G109A).
T3 construct: SLH domain trimer, amino acids 21–193, Ser-Gly-Ser linker and C-terminal His6-tag
T3 sequence (C1JZ07 21-193 G46A/G109A): T1 sequence (C1JZ07 21-193)
In words: co-crystal structure (no binding detected by ITC).

A word on the Kd: it is the constant that tells how readily two partners part at equilibrium. A low value points to higher affinity.

Take `CO[C@@H]1O[C@@H]2CO[C@](C)(C(=O)O)O[C@H]2[C@H](O[C@@H]2O[C@H](CO)[C@@H](O)[C@H](O)[C@H]2NC(C)=O)[C@@H]1NC(C)=O` [disaccharide, β-D-GlcNAc-(1 → 3)-4,6-Pyr-β-D-ManNAcOMe]: in assay [1], the “co-crystal structure (no binding detected by ITC)” value is “Despite the lack of binding measured by ITC, a co-crystal structure with the internal disaccharide was obtained”.

In the case of `CO[C@@H]1O[C@@H]2CO[C@](C)(C(=O)O)O[C@H]2[C@H](O)[C@@H]1NC(C)=O` [monosaccharide (M), 4,6-Pyr-β-D-ManNAcOMe], the figures for the Kd in assay [2] and in assay [3] were 226 nM and 29 nM, respectively. Moreover, in assay [4], the “co-crystal structure (no binding detected by ITC)” value is “Despite the lack of binding detected by ITC, ligand is again observed bound in the G2 pocket”.
